Counter-ions that a name gives are not always drawn. Like-named read-outs stand apart in the source and are kept apart here.
Tests used:
[1] = blank human plasma matrix, room temperature, at least 4 hours; cited from earlier work
[2] = system: MDA-MB-231; test: In vitro cytotoxicity / growth inhibition, SRB assay, 72 hr, breast cancer cells; type: cell-based; conditions: for IC50: Table 2; for GI50: 72 hr
Method: (§1) In general, growth inhibitory effects of gemcitabine and prodrugs were evaluated in breast (MDA), lung (H460) and colon (H116) cancer cell lines by seeding the cell lines in 96-wells plates and exposing the cells to various drug concentrations for 72 hr. Standard sulforhodamine B (SRB) assay was then performed.

[3] = system: HCT-116; test: In vitro cytotoxicity / growth inhibition, SRB assay, 72 hr, colon cancer cells; type: cell-based; conditions: for IC50: Table 2, HCT-116; for GI50: 72 hr
Method: as §1

[4] = system: NCI-H460; test: In vitro cytotoxicity / growth inhibition, SRB assay, 72 hr, non-small cell lung cancer cells; type: cell-based; conditions: for IC50: Table 2; for GI50: 72 hr
Method: as §1

[5] = system: CEM dCK(—); test: Activity in CEM cells without deoxycytidine kinase; type: cell-based; conditions: for increase of IC50 from dCK WT cells to dCK (−) cells: CEM dCK(−) vs CEM WT; for IC50: Homo sapiens, CCRF-CEM, CEM dCK(—) cells
Method: (§2) To further confirm that tocopherol/tocotrienol-modified drugs are imported as intact molecules and then dissociate intracellularly into monophosphorylated nucleoside and carrier, i.e., tocopherol/tocotrienol, Compound 2 was tested for activity against gemcitabine in wild type (WT) leukemic CEM cells and CEM cells without deoxycytidine kinase (dCK). In the absence of dCK, gemcitabine is not phosphorylated to gemcitabine monophosphate a precursor to the therapeutically active di- and triphosphates.

[6] = system: CEM WT; test: Activity in wild type leukemic CEM cells; type: cell-based; conditions: for IC50: Homo sapiens, CCRF-CEM, CEM WT (dCK wild type) cells
Method: as §2

[7] = Intrinsic clearance / metabolic stability in liver microsomes; type: in vitro ADME; conditions: human liver microsomes
Method: Metabolic stability, expressed as percent of the parent compound remaining, was calculated by comparing the peak area of the compound at the time point relative to that at time-0. The half-life (T1/2) was estimated from the slope of the initial linear range of the logarithmic curve of compound remaining (%) vs. time, assuming the first-order kinetics. The apparent intrinsic clearance (CLint, in μL/min/pmol, μL/min/mg or μL/min/Mcell) was calculated according to the following formula: CLint=[…](mg protein/μL or million cells/μL or pmol CYP isozyme/μL)

[8] = Aqueous solubility determination; type: physicochemical
Text: In addition, chromatographic purity (%) was defined as the peak area of the principal peak relative to the total integrated peak area in the HPLC chromatogram of the calibration standard. A chromatogram of the calibration standard of each test compound, along with a UV/VIS spectrum with labeled absorbance maxima, was generated.

[9] = system: pancreatic cancer; conditions: clinical trials, patients with pancreatic cancer; cited from earlier work
[10] = Homo sapiens, MDA-MB-231, absence of dipyridamole (control), read-out: GI50 SRB, MDA Breast
[11] = Homo sapiens, MDA-MB-231, presence of 1 μM dipyridamole, read-out: GI50 SRB, MDA Breast, dipyridamole
[12] = Homo sapiens, absence of dipyridamole (control), read-out: GI50 SRB, H116 Colon
[13] = Homo sapiens, presence of 1 μM dipyridamole, read-out: GI50 SRB, H116 Colon, dipyridamole
[14] = Homo sapiens, NCI-H460, absence of dipyridamole (control), read-out: GI50 SRB, H460 Lung
[15] = Homo sapiens, NCI-H460, presence of 1 μM dipyridamole, read-out: GI50 SRB, H460 Lung, dipyridamole

Q: For `CCCCCCCC/C=C/CCCCCCCC(=O)OC[C@H]1O[C@@H](n2cnc(N)nc2=O)[C@H](O)[C@@H]1O` [5-azacytidine elaidic acid ester], which “percent of the initial amount remaining” value [1] is on record?
A: The value was 94%.

Q: Which results are given for `Cc1c(C)c2c(c(C)c1OP(=O)(O)OC[C@H]1O[C@@H](n3ccc(N)nc3=O)C(F)(F)[C@@H]1O)CC[C@@](C)(CCC[C@H](C)CCC[C@H](C)CCCC(C)C)O2` [Compound 1, D-α-tocopheryl phosphate-5′-gemcitabine, triethylammonium salt]?
A: IC50 ([2]; Homo sapiens, MDA-MB-231): 22.7 µM; IC50 ([3]; Homo sapiens): 26.1 µM; IC50 ([4]; Homo sapiens, NCI-H460): 23.8 µM

Q: What does the source list for `Cc1cc(OP(=O)(O)OC[C@H]2O[C@@H](n3ccc(N)nc3=O)C(F)(F)C2O)cc2c1O[C@](C)(CCC[C@H](C)CCC[C@H](C)CCCC(C)C)CC2` (stereo partly drawn) [Compound 2, D-δ-tocopheryl phosphate-5′-gemcitabine, triethylammonium salt]?
A: increase of IC50 from dCK WT cells to dCK (−) cells [5]: 32.5 fold; IC50 [5]: 19.2 µM; fold by which IC50 of Compound 2 was lower than gemcitabine ([5]; dCK (−) cells): 6.5 fold; GI50 [2, 10]: 17.2 µM; GI50 [2, 11]: 23.3 µM; IC50 ([2]; Homo sapiens, MDA-MB-231): 5.08 µM; IC50 ([3]; Homo sapiens): 3.67 µM; GI50 [3, 12]: 3.07 µM; GI50 [3, 13]: 6.74 µM; IC50 [6]: 0.59 µM; intrinsic clearance half-life [7]: greater than 60 minutes; solubility ([8]; PBS buffer, aqueous buffer, PBS (pH 7.4), read-out: aqueous solubility in PBS): > 10000 µg/mL; solubility ([8]; simulated intestinal fluid, fassgf or other biorelevant, read-out: aqueous solubility in simulated intestinal fluid): > 200 µM; GI50 [4, 14]: 2.14 µM; GI50 [4, 15]: 1.47 µM; IC50 ([4]; Homo sapiens, NCI-H460): 1.69 µM

Q: Which IC50 ([2]; MDA-MB-231) does the source give for `CC(C)=CCC/C(C)=C/CC/C(C)=C/CCC1(C)CCc2cc(OP(=O)(O)OC[C@H]3O[C@@H](n4ccc(N)nc4=O)C(F)(F)[C@@H]3O)c(C)c(C)c2O1` (stereo partly drawn) [Compound 3, D-γ-tocotrienyl phosphate-5′-gemcitabine, triethylammonium salt] here?
A: The IC50 was 4.9 µM.

Q: And the GI50 ([2]; absence of dipyridamole (control), read-out: GI50 SRB, MDA Breast)?
A: The GI50 was 30.3 µM.

Q: What about the GI50 ([2]; presence of 1 μM dipyridamole, read-out: GI50 SRB, MDA Breast, dipyridamole) of the same compound?
A: Its GI50 is 27.8 µM.

Q: And the IC50 [3]?
A: The IC50 was 4.01 µM.

Q: And the GI50 ([3]; absence of dipyridamole (control), read-out: GI50 SRB, H116 Colon)?
A: The GI50 was 5.55 µM.

Q: And the GI50 ([3]; presence of 1 μM dipyridamole, read-out: GI50 SRB, H116 Colon, dipyridamole)?
A: Its GI50 is 12.6 µM.

Q: And the IC50 ([4]; NCI-H460)?
A: The IC50 was 4.75 µM.

Q: And the GI50 ([4]; absence of dipyridamole (control), read-out: GI50 SRB, H460 Lung)?
A: Its GI50 is 7.16 µM.

Q: What about the GI50 ([4]; presence of 1 μM dipyridamole, read-out: GI50 SRB, H460 Lung, dipyridamole) of the same compound?
A: Its GI50 is 16 µM.

Q: Which “increase of IC50 from dCK WT cells to dCK (−) cells” value [5] does the source give for `Nc1ccn([C@@H]2O[C@H](CO)[C@@H](O)C2(F)F)c(=O)n1` [Gemcitabine, reference compound] here?
A: Its value is 62,250 fold.

Q: And the IC50 [5]?
A: The IC50 was 124 µM.

Q: What about the GI50 [2, 10] of the same compound?
A: Its GI50 is 3.08 µM.

Q: What about the GI50 [2, 11] of the same compound?
A: Its GI50 is 56.8 µM.

Q: What about the IC50 ([2]; Homo sapiens, MDA-MB-231) of the same compound?
A: Its IC50 is 0.11 µM.

Q: What about the IC50 ([3]; Homo sapiens) of the same compound?
A: The IC50 was 0.01 µM.

Q: And the GI50 [3, 12]?
A: Its GI50 is 0.03 µM.

Q: What about the GI50 [3, 13] of the same compound?
A: Its GI50 is 2.39 µM.

Q: What about the IC50 [6] of the same compound?
A: The IC50 was 0.002 µM.

Q: And the “fold by which IC50 of gemcitabine was lower than Compound 2” value ([6]; dCK WT cells)?
A: Its value is 295 fold.

Q: What about the GI50 [4, 14] of the same compound?
A: Its GI50 is 0.02 µM.

Q: And the GI50 [4, 15]?
A: Its GI50 is 0.82 µM.

Q: And the IC50 ([4]; Homo sapiens, NCI-H460)?
A: The IC50 was 0.02 µM.

Q: Which survival versus gemcitabine [9] does the source give for `CCCCCCCC/C=C/CCCCCCCC(=O)OC[C@H]1O[C@@H](n2ccc(N)nc2=O)C(F)(F)[C@@H]1O` [elaidic acid prodrug] here?
A: The survival versus gemcitabine was “did not show any difference in survival”.

Q: What does the source list for `CC(C)=CCC/C(C)=C/CC/C(C)=C/CCC1(C)CCc2cc(OP(=O)(O)O)c(C)c(C)c2O1` (stereo not shown) [γ-tocotrienyl phosphate, reference compound]?
A: IC50 ([2]; MDA-MB-231): 26.4 µM; IC50 [3]: 55.7 µM; IC50 ([4]; NCI-H460): 69.1 µM

Q: What does the source list for “α-tocopheryl phosphate [reference compound]”?
A: IC50 ([2]; MDA-MB-231): 23.4 µM; IC50 [3]: 46.9 µM; IC50 ([4]; NCI-H460): 52.2 µM

Q: For “δ-tocopheryl phosphate [reference compound]”, which IC50 ([2]; MDA-MB-231) is on record?
A: Its IC50 is 29.6 µM.

Q: What about the IC50 [3] of the same compound?
A: The IC50 was 70.6 µM.

Q: What about the IC50 ([4]; NCI-H460) of the same compound?
A: The IC50 was 69.7 µM.

— patent US10071112B2, “Vitamin E-nucleoside prodrugs” (EPIGENETICS PHARMA LLC, priority 2014, dated 2018)
